Measured values from the supplement of paper PMC10307832.

What was measured:
Assay in all cases: relative viability (nuclei count vs DMSO), 5 days (fraction); higher = more cells survive
NCI-H1648 = tested on: NCI-H1648
Outline: (§1)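 After 5 days of treatment, lung cancer cells in 1536-well plates were fixed and stained in a single step (final 0.05% Triton X-100, 1% formaldehyde, 1 ug/ml Hoechst) and their nuclei counted on 4× images. Treatment had been applied by pin tool the day after seeding as one drug alone or as a fixed anchor-drug dose with five library-drug doses (not always all listed) in √10 steps. Relative viability is the nuclei count of treated wells divided by that of vehicle wells, and values are medians of duplicate plates.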

IA-LM = tested on: IA-LM
Outline: as §1

NCI-H1355 = tested on: NCI-H1355
Outline: as §1

A549 = tested on: A549
Outline: as §1

Row | Structure (SMILES) | relative viability (NCI-H1648; first compound 0.04 µM) | relative viability (NCI-H1648; first compound 0.1265 µM) | relative viability (NCI-H1648; first compound 0.4 µM) | relative viability (NCI-H1648; first compound 1.265 µM) | relative viability (NCI-H1648; first compound 4 µM) | relative viability (NCI-H1355; first compound 0.04 µM) | relative viability (NCI-H1355; first compound 0.1265 µM) | relative viability (NCI-H1355; first compound 0.4 µM) | relative viability (NCI-H1355; first compound 1.265 µM) | relative viability (NCI-H1355; first compound 4 µM) | also measured
1 | Clc1ccc(Nc2nnc(Cc3ccncc3)c3ccccc23)cc1 [Vatalanib] + O=C(CCCCCCC(=O)Nc1ccccc1)NO [Vorinostat] (partner 1 µM) | 0.32 | 0.644 | 0.562 | 0.42 | 0.444 | 0.684 | 0.691 | 0.727 | 0.57 | 0.581 | relative viability (IA-LM; first compound 0.04 µM): 0.952; relative viability (IA-LM; first compound 0.1265 µM): 1.24; relative viability (IA-LM; first compound 0.4 µM): 0.895; relative viability (IA-LM; first compound 1.265 µM): 0.99; relative viability (IA-LM; first compound 4 µM): 0.976
2 | CC(C)Oc1cc(Nc2nc(N[C@@H](C)c3ccc(F)cn3)ncc2Cl)n[nH]1 [AZ23] + CC(=O)c1c(C)c2cnc(Nc3ccc(N4CCNCC4)cn3)nc2n(C2CCCC2)c1=O [Palbociclib] (partner 0.5 µM) |  |  |  |  |  |  |  |  |  |  | relative viability (NCI-H1648; first compound 0.01 µM): 0.227; relative viability (NCI-H1648; first compound 0.03162 µM): 0.208; relative viability (NCI-H1648; first compound 0.3162 µM): 0.23; relative viability (NCI-H1355; first compound 0.01 µM): 0.437; relative viability (NCI-H1355; first compound 0.03162 µM): 0.455; relative viability (NCI-H1355; first compound 0.3162 µM): 0.375
3 | Clc1ccc(Nc2nnc(Cc3ccncc3)c3ccccc23)cc1 [Vatalanib] + CC(=O)c1c(C)c2cnc(Nc3ccc(N4CCNCC4)cn3)nc2n(C2CCCC2)c1=O [Palbociclib] (partner 0.5 µM) | 0.268 | 0.307 | 0.26 | 0.233 | 0.302 | 0.434 | 0.428 | 0.424 | 0.35 | 0.388 | 
4 | Clc1ccc(Nc2nnc(Cc3ccncc3)c3ccccc23)cc1 [Vatalanib] + CC(=O)Nc1cccc(-n2c(=O)n(C3CC3)c(=O)c3c(Nc4ccc(I)cc4F)n(C)c(=O)c(C)c32)c1 [Trametinib] (partner 0.02 µM) | 0.407 | 0.463 | 0.577 | 0.467 | 0.578 | 0.443 | 0.383 | 0.461 | 0.404 | 0.428 | 
5 | Clc1ccc(Nc2nnc(Cc3ccncc3)c3ccccc23)cc1 [Vatalanib] + Nc1nc2[nH]cc(CCc3ccc(C(=O)N[C@@H](CCC(=O)O)C(=O)O)cc3)c2c(=O)[nH]1 [Pemetrexed] (partner 0.2 µM) | 0.67 | 0.674 | 0.691 | 0.741 | 0.718 | 0.965 | 1.01 | 1.08 | 0.979 | 0.936 | 
6 | C[C@@H]1CN(CC(=O)Nc2ccc3c(c2)Cc2cccc(-c4cc(=O)cc(N5CCOCC5)o4)c2S3)C[C@H](C)O1 + Nc1nc2[nH]cc(CCc3ccc(C(=O)N[C@@H](CCC(=O)O)C(=O)O)cc3)c2c(=O)[nH]1 [Pemetrexed] (partner 0.2 µM) | 0.588 | 0.801 | 0.747 |  | 0.64 | 0.941 | 1.04 | 0.959 |  | 0.997 | 
7 | CC(C)Oc1cc(Nc2nc(N[C@@H](C)c3ccc(F)cn3)ncc2Cl)n[nH]1 [AZ23] + CC(=O)Nc1cccc(-n2c(=O)n(C3CC3)c(=O)c3c(Nc4ccc(I)cc4F)n(C)c(=O)c(C)c32)c1 [Trametinib] (partner 0.02 µM) |  |  |  |  |  |  |  |  |  |  | relative viability (NCI-H1648; first compound 0.01 µM): 0.374; relative viability (NCI-H1648; first compound 0.03162 µM): 0.427; relative viability (NCI-H1648; first compound 0.3162 µM): 0.314; relative viability (NCI-H1355; first compound 0.01 µM): 0.359; relative viability (NCI-H1355; first compound 0.03162 µM): 0.417; relative viability (NCI-H1355; first compound 0.3162 µM): 0.353
8 | COc1cc(N2CCC(C(N)=O)CC2)ccc1Nc1nc(N)c(Cl)c(Nc2ccccc2S(=O)(=O)C(C)C)n1 [HG-5-88-01] + CC(=O)c1c(C)c2cnc(Nc3ccc(N4CCNCC4)cn3)nc2n(C2CCCC2)c1=O [Palbociclib] (partner 0.5 µM) | 0.291 | 0.27 | 0.321 | 0.206 | 0.244 | 0.4 | 0.394 | 0.426 | 0.338 | 0.362 | 
9 | COc1cc(N2CCC(C(N)=O)CC2)ccc1Nc1nc(N)c(Cl)c(Nc2ccccc2S(=O)(=O)C(C)C)n1 [HG-5-88-01] + Nc1ncn([C@H]2C[C@H](O)[C@@H](CO)O2)c(=O)n1 [Decitabine] (partner 2 µM) | 0.5 | 0.443 | 0.457 | 0.359 | 0.292 | 0.337 | 0.382 | 0.38 | 0.334 | 0.331 | relative viability (A549; first compound 0.04 µM): 0.296; relative viability (A549; first compound 0.1265 µM): 0.34; relative viability (A549; first compound 0.4 µM): 0.274; relative viability (A549; first compound 1.265 µM): 0.246; relative viability (A549; first compound 4 µM): 0.388
10 | CC(C)Oc1cc(Nc2nc(N[C@@H](C)c3ccc(F)cn3)ncc2Cl)n[nH]1 [AZ23] + O=C(CCCCCCC(=O)Nc1ccccc1)NO [Vorinostat] (partner 1 µM) |  |  |  |  |  |  |  |  |  |  | relative viability (NCI-H1648; first compound 0.01 µM): 0.373; relative viability (NCI-H1648; first compound 0.03162 µM): 0.567; relative viability (NCI-H1648; first compound 0.3162 µM): 0.316; relative viability (IA-LM; first compound 0.01 µM): 0.895; relative viability (IA-LM; first compound 0.03162 µM): 1.05; relative viability (IA-LM; first compound 0.3162 µM): 1.06; relative viability (NCI-H1355; first compound 0.01 µM): 0.672; relative viability (NCI-H1355; first compound 0.03162 µM): 0.715; relative viability (NCI-H1355; first compound 0.3162 µM): 0.633
11 | C[C@@H]1CN(CC(=O)Nc2ccc3c(c2)Cc2cccc(-c4cc(=O)cc(N5CCOCC5)o4)c2S3)C[C@H](C)O1 + Nc1ncn([C@H]2C[C@H](O)[C@@H](CO)O2)c(=O)n1 [Decitabine] (partner 2 µM) | 0.41 | 0.515 | 0.591 |  | 0.434 | 0.389 | 0.338 | 0.363 |  | 0.375 | relative viability (A549; first compound 0.04 µM): 0.24; relative viability (A549; first compound 0.1265 µM): 0.227; relative viability (A549; first compound 0.4 µM): 0.254; relative viability (A549; first compound 4 µM): 0.31
12 | COc1cc(N2CCC(C(N)=O)CC2)ccc1Nc1nc(N)c(Cl)c(Nc2ccccc2S(=O)(=O)C(C)C)n1 [HG-5-88-01] + Nc1nc2[nH]cc(CCc3ccc(C(=O)N[C@@H](CCC(=O)O)C(=O)O)cc3)c2c(=O)[nH]1 [Pemetrexed] (partner 0.2 µM) | 0.772 | 0.719 | 0.605 | 0.596 | 0.562 | 1.11 | 1.03 | 0.726 | 1.04 | 0.685 | 
13 | C[C@@H]1CN(CC(=O)Nc2ccc3c(c2)Cc2cccc(-c4cc(=O)cc(N5CCOCC5)o4)c2S3)C[C@H](C)O1 + CC(=O)Nc1cccc(-n2c(=O)n(C3CC3)c(=O)c3c(Nc4ccc(I)cc4F)n(C)c(=O)c(C)c32)c1 [Trametinib] (partner 0.02 µM) | 0.484 | 0.435 | 0.474 |  | 0.527 | 0.452 | 0.405 | 0.383 |  | 0.401 | 
14 | CC(C)Oc1cc(Nc2nc(N[C@@H](C)c3ccc(F)cn3)ncc2Cl)n[nH]1 [AZ23] + Nc1ncn([C@H]2C[C@H](O)[C@@H](CO)O2)c(=O)n1 [Decitabine] (partner 2 µM) |  |  |  |  |  |  |  |  |  |  | relative viability (A549; first compound 0.01 µM): 0.3; relative viability (A549; first compound 0.03162 µM): 0.325; relative viability (A549; first compound 0.3162 µM): 0.281; relative viability (NCI-H1648; first compound 0.01 µM): 0.546; relative viability (NCI-H1648; first compound 0.03162 µM): 0.534; relative viability (NCI-H1648; first compound 0.3162 µM): 0.509; relative viability (NCI-H1355; first compound 0.01 µM): 0.377; relative viability (NCI-H1355; first compound 0.03162 µM): 0.366; relative viability (NCI-H1355; first compound 0.3162 µM): 0.333
15 | COc1cc(N2CCC(C(N)=O)CC2)ccc1Nc1nc(N)c(Cl)c(Nc2ccccc2S(=O)(=O)C(C)C)n1 [HG-5-88-01] + O=C(CCCCCCC(=O)Nc1ccccc1)NO [Vorinostat] (partner 1 µM) | 0.616 | 0.307 | 0.626 | 0.308 | 0.301 | 0.59 | 0.62 | 0.626 | 0.587 | 0.399 | relative viability (IA-LM; first compound 0.04 µM): 1.03; relative viability (IA-LM; first compound 0.1265 µM): 1.01; relative viability (IA-LM; first compound 0.4 µM): 0.776; relative viability (IA-LM; first compound 1.265 µM): 0.825; relative viability (IA-LM; first compound 4 µM): 0.899
16 | COc1cc(N2CCC(C(N)=O)CC2)ccc1Nc1nc(N)c(Cl)c(Nc2ccccc2S(=O)(=O)C(C)C)n1 [HG-5-88-01] + CC(=O)Nc1cccc(-n2c(=O)n(C3CC3)c(=O)c3c(Nc4ccc(I)cc4F)n(C)c(=O)c(C)c32)c1 [Trametinib] (partner 0.02 µM) | 0.485 | 0.459 | 0.417 | 0.352 | 0.316 | 0.439 | 0.351 | 0.407 | 0.298 | 0.323 | 
17 | Clc1ccc(Nc2nnc(Cc3ccncc3)c3ccccc23)cc1 [Vatalanib] + Nc1ncn([C@H]2C[C@H](O)[C@@H](CO)O2)c(=O)n1 [Decitabine] (partner 2 µM) | 0.497 | 0.462 | 0.514 | 0.425 | 0.482 | 0.393 | 0.328 | 0.343 | 0.33 | 0.356 | relative viability (A549; first compound 0.04 µM): 0.238; relative viability (A549; first compound 0.1265 µM): 0.451; relative viability (A549; first compound 0.4 µM): 0.313; relative viability (A549; first compound 1.265 µM): 0.213; relative viability (A549; first compound 4 µM): 0.295
18 | C[C@@H]1CN(CC(=O)Nc2ccc3c(c2)Cc2cccc(-c4cc(=O)cc(N5CCOCC5)o4)c2S3)C[C@H](C)O1 + CC(=O)c1c(C)c2cnc(Nc3ccc(N4CCNCC4)cn3)nc2n(C2CCCC2)c1=O [Palbociclib] (partner 0.5 µM) | 0.265 | 0.322 | 0.373 |  | 0.26 | 0.397 | 0.4 | 0.404 |  | 0.385 | 
19 | CC(C)Oc1cc(Nc2nc(N[C@@H](C)c3ccc(F)cn3)ncc2Cl)n[nH]1 [AZ23] + Nc1nc2[nH]cc(CCc3ccc(C(=O)N[C@@H](CCC(=O)O)C(=O)O)cc3)c2c(=O)[nH]1 [Pemetrexed] (partner 0.2 µM) |  |  |  |  |  |  |  |  |  |  | relative viability (NCI-H1648; first compound 0.01 µM): 0.706; relative viability (NCI-H1648; first compound 0.03162 µM): 0.632; relative viability (NCI-H1648; first compound 0.3162 µM): 0.807; relative viability (NCI-H1355; first compound 0.01 µM): 1.13; relative viability (NCI-H1355; first compound 0.03162 µM): 1.11; relative viability (NCI-H1355; first compound 0.3162 µM): 1.05
20 | C[C@@H]1CN(CC(=O)Nc2ccc3c(c2)Cc2cccc(-c4cc(=O)cc(N5CCOCC5)o4)c2S3)C[C@H](C)O1 + O=C(CCCCCCC(=O)Nc1ccccc1)NO [Vorinostat] (partner 1 µM) | 0.505 | 0.605 | 0.644 |  | 0.528 | 0.552 | 0.713 | 0.566 |  | 0.621 | relative viability (IA-LM; first compound 0.04 µM): 0.819; relative viability (IA-LM; first compound 0.1265 µM): 0.933; relative viability (IA-LM; first compound 0.4 µM): 1.09; relative viability (IA-LM; first compound 4 µM): 0.897
